Measurements published in patent publication US6596719B1 (Actelio Pharmaceuticals Ltd., priority 1999, dated 2003).
Read-outs that look alike come from different tables or passages of the source.

Tests used:
[1] = biological target: T1, human recombinant ETA receptors (Homo sapiens, UniProt P25101); assay: Inhibition of endothelin binding to membranes from CHO cells carrying human ET receptors (ETA)
T1 construct: expressed in transfected cells; host or cells: CHO cells (microsomal membranes)
T1 sequence (P25101 21-427): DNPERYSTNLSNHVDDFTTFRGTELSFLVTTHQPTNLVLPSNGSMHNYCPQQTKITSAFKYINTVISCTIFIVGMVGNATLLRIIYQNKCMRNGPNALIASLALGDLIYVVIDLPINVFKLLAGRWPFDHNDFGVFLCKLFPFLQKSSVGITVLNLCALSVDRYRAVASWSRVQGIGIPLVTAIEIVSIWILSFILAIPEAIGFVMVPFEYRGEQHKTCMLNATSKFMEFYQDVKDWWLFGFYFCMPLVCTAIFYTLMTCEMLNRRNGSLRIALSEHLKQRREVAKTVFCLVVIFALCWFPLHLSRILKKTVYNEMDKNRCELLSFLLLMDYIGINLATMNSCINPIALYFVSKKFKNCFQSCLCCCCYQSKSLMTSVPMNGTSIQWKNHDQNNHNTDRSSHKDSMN

[2] = biological target: T2, human recombinant ETB receptors (Homo sapiens, UniProt P24530); assay: Inhibition of endothelin binding to membranes from CHO cells carrying human ET receptors (ETB)
T2 construct: expressed in transfected cells; host or cells: CHO cells (microsomal membranes)
T2 sequence (P24530 27-442): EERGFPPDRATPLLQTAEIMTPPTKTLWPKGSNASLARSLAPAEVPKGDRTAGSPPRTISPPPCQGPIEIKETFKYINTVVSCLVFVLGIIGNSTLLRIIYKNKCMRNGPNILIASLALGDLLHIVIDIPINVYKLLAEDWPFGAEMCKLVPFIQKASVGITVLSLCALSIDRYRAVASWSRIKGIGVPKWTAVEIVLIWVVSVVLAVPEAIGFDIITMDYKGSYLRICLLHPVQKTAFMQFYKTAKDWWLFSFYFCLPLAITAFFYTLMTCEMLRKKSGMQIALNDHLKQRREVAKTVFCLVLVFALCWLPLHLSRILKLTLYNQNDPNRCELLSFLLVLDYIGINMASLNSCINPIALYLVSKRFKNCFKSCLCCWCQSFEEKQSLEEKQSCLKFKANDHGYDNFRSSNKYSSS
Description: 1) Inhibition of Endothelin Binding to Membranes from CHO Cells Carrying Human ET Receptors:
For competition binding studies, membranes of CHO cells expressing human recombinant ETA or ETB receptors were used. Microsomal membranes from recombinant CHO cells were prepared and the binding assay made as previously described (Breu V., et al, FEBS Lett 1993; 334:210).
The assay was performed in 200 uL 50 mM Tris/HCl buffer, pH 7.4, including 25 mM MnCl2, 1 mM EDTA and 0.5% (w/v) BSA in polypropylene microtiter plates. […]. […] After two h, the membranes were filtered on, filterplates containing GF/C filters (Unifilterplates from Canberra Packard S. A. Zürich, Switzerland). To each well, 50 uL of scintillation cocktail was added (MicroScint 20, Canberra Packard S. A. Zürich, Switzerland) and the filter plates counted in a microplate counter (TopCount, Canberra Packard S. A. Zürich, Switzerland).
All the test compounds were dissolved, diluted and added in DMSO. […] […].

[3] = membranes of CHO cells expressing human recombinant ETA receptors, 8 pM [125I]ET-1, 2 h at 20° C.
[4] = membranes of CHO cells expressing human recombinant ETB receptors, 8 pM [125I]ET-1, 2 h at 20° C.

Row | Molecule | IC50 [1, 3] [nM] | IC50 [2, 4] [nM] | IC50 [1] [nM] | IC50 [2] [nM]
1 | 5-isopropyl-N-[6-(2-(1-propanesulfonylamino)-ethoxy)-5-(o-methoxyphenoxy)-2-(2-pyridyl)-4-pyrimidinyl]-2-pyridine sulfonamide [Example 72] | 153 | 279 |  | 
2 | COc1ccccc1Oc1c(NS(=O)(=O)c2ccc(C(C)C)cn2)nc(-c2ccncc2)nc1OCCNS(=O)(=O)c1cccs1 [Example 71] |  |  | 508 | 231
3 | COc1ccccc1Oc1c(NS(=O)(=O)c2ccc(C(C)C)cn2)nc(-c2ncccn2)nc1OCCNS(=O)(=O)c1cccs1 [Example 68, 5-isopropyl-N-[6-(2-(2-thiophenesulfonylamino)-ethoxy)-5-(o-methoxyphenoxy)-2-(2-pyrimidinyl)-4-pyrimidinyl]-2-pyridine sulfonamide] |  |  | 477 | 169
4 | CCCCS(=O)(=O)NCCOc1nc(C(F)(F)F)nc(NS(=O)(=O)c2ccc(C(C)C)cn2)c1Oc1ccccc1OC [Example 49, 5-i.-propyl-N-[6-(2-butanesulfonylamino-ethoxy)-5-(o-methoxyphenoxy)-2-trifluoromethyl-4-pyrimidinyl]pyridine-2-sulfonamide] |  |  | 1030 | 274
5 | CCCS(=O)(=O)NCCOc1nc(N2CCOCC2)nc(NS(=O)(=O)c2ccc(C(C)C)cn2)c1Oc1ccccc1OC [Example 46, 5-isopropyl-N-[6-(2-(1-propane)sulfonylamino-ethoxy)-5-(o-methoxyphenoxy)-2-(N-morpholino)-4-pyrimidinyl]-2-pyridine sulfonamide] | 140 | 103 |  | 
6 | COc1ccccc1Oc1c(NS(=O)(=O)c2ccc(C)cn2)nc(-c2ccncc2)nc1OCCNS(C)(=O)=O [Example 78, 5-methyl-N-[6-(2-(methanesulfonylamino)-ethoxy)-5-(o-methoxyphenoxy)-2-(4-pyridyl)-4-pyrimidinyl]-2-pyridine sulfonamide] |  |  | 627 | 5460
7 | COc1ccccc1Oc1c(NS(=O)(=O)c2ccc(C)cn2)nc(N2CCOCC2)nc1OCCNS(=O)(=O)c1cccs1 [Example 58, 5-methyl-N-[6-(2-(thiophene-2-sulfonylamino)-ethoxy)-5-(o-methoxyphenoxy)-2-(N-morpholino)-4-pyrimidinyl]-2-pyridine sulfonamide] |  | 447 |  | 
8 | COc1ccccc1Oc1c(NS(=O)(=O)c2ccc(C(C)C)cn2)nc(N2CCOCC2)nc1OCCNS(C)(=O)=O [Example 45, 5-isopropyl-N-[6-(2-methanesulfonylamino-ethoxy)-5-(o-methoxyphenoxy)-2-(N-morpholino)-4-pyrimidinyl]-2-pyridine sulfonamide] |  |  | 251 | 336
9 | COc1ccccc1Oc1c(NS(=O)(=O)c2ccc(C(C)C)cn2)nc(-c2ccncc2)nc1OCCNS(C)(=O)=O [Example 14, 5-i.-propyl-N-[6-(ethoxy-2-methanesulfonamido)-5-(o-methoxyphenoxy)-2-(4-pyridyl)-4-pyrimidinyl]pyridine-2-sulfonamide] |  |  | 518 | 451
10 | CCS(=O)(=O)NCCOc1nc(-c2ncccn2)nc(NS(=O)(=O)c2ccc(C(C)(C)C)cc2)c1Oc1ccccc1OC [Example 8, p-tert.-butyl-N-[6-(ethoxy-2-ethanesulfonamido)-5-(o-methoxyphenoxy)-2-(2-pyrimidinyl)-4-pyrimidinyl]benzene-sulfonamide] | 160 | 130 |  | 

Other lines, results leading:

Row | IC50 [1, 3] [nM] | IC50 [2, 4] [nM] | IC50 [1] [nM] | IC50 [2] [nM] | Molecule
11 |  |  | 443 | 163 | COc1ccccc1Oc1c(NS(=O)(=O)c2ccc(C(C)(C)C)cc2)nc(C)nc1OCCNS(=O)(=O)c1cccs1 [Example 62, 4-tert.-butyl-N-[6-(2-(2-thiophenesulfonylamino)-ethoxy)-5-(o-methoxyphenoxy)-2-methyl-4-pyrimidinyl]-benzene sulfonamide]
12 | 8300 | 420 |  |  | COc1ccccc1Oc1c(NS(=O)(=O)c2ccc(C(C)(C)C)cc2)nc(-c2ncccn2)nc1OCCNS(=O)(=O)c1ccc(C)cc1 [Example 6, p-tert.-butyl-N-[6-(ethoxy-2-p-toluenesulfonamido)-5-(o-methoxyphenoxy)-2-(2-pyrimidinyl)-4-pyrimidinyl]benzene-sulfonamide]
13 |  |  | 76 | 87 | COc1ccccc1Oc1c(NS(=O)(=O)c2ccc(C(C)(C)C)cc2)nc(C2CC2)nc1OCCNS(=O)(=O)C(C)C [Example 40, 4-tert.-butyl-N-[6-(2-(2-propane)-sulfonylamino-ethoxy)-5-(o-methoxyphenoxy)-2-cyclopropyl-pyrimidin-4-yl]-benzene-sulfonamide]
14 |  |  | 3630 | 995 | COc1ccccc1Oc1c(NS(=O)(=O)c2ccc(C(C)(C)C)cc2)ncnc1OCCNS(=O)(=O)c1ccc(Br)cc1 [Example 27, 4-tert.-butyl-N-{6-[2-(4-bromobenzenesulfonyl-amino)-ethoxy]-5-(o-methoxy-phenoxy)-pyrimidin-4-yl}-benzenesulfonamide]
15 |  |  | 3710 | 1040 | COc1ccccc1Oc1c(NS(=O)(=O)c2ccc(C(C)(C)C)cc2)ncnc1OCCNS(=O)(=O)c1ccc(C)cc1 [Example 28, 4-tert.-butyl-N-{6-[2-(4-methylbenzenesulfonyl-amino)-ethoxy]-5-(o-methoxy-phenoxy)-pydmidin-4-yl}-benzenesulfonamide]
16 |  |  | 1620 | 208 | COc1ccccc1Oc1c(NS(=O)(=O)c2ccc(C)cn2)nc(N2CCOCC2)nc1OCCNS(=O)(=O)c1ccccc1 [Example 57, 5-methyl-N-[6-(2-(benzenesulfonylamino)-ethoxy)-5-(o-methoxyphenoxy)-2-(N-morpholino)-4-pyrimidinyl]-2-pyridine sulfonamide]
17 |  |  | 1250 | 235 | COc1ccccc1Oc1c(NS(=O)(=O)c2ccc(C(C)(C)C)cc2)ncnc1OCCNS(=O)(=O)c1cccs1 [Example 29, 4-tert.-butyl-N-{6-[2-(2-thiophenesulfonyl-amino)-ethoxy]-5-(o-methoxy-phenoxy)-pydmidin-4-yl}-benzenesulfonamide]
18 |  |  | 311 | 3510 | CCS(=O)(=O)NCCOc1nc(N2CCN(C)CC2)nc(NS(=O)(=O)c2ccc(C(C)(C)C)cc2)c1Oc1ccccc1OC [Example 82, 4-tert.-butyl-N-[6-(2-ethanesulfonylamino-ethoxy)-2-(N-(N′-methyl)-piperazinyl)-5-(o-methoxyphenoxy)-pyrimidin-4-yl]-benzene-sulfonamide]
19 | 1050 | 81 |  |  | COc1ccccc1Oc1c(NS(=O)(=O)c2ccc(C(C)C)cn2)nc(C2CC2)nc1OCCNS(=O)(=O)c1ccc(C)cc1 [Example 39, 5-i-propyl-N-[6-(2-(4-methylbenzene)-sulfonylamino-ethoxy)-5-(o-methoxyphenoxy)-2-cyclopropyl-pyrimidin-4-yl]-pyridine-2-sulfonamide]
20 |  |  | 1100 | 117 | CCCCS(=O)(=O)NCCOc1nc(-c2ncccn2)nc(NS(=O)(=O)c2ccc(C(C)(C)C)cc2)c1Oc1ccccc1OC [Example 17, p-tert.-butyl-N-[6-(ethoxy-2-(1-butanesulfonamido))-5-(o-methoxyphenoxy)-2-(2-pyrimidinyl)-4-pyrimidinyl]benzene-sulfonamide]
21 |  |  |  | 4.1 | COc1ccccc1Oc1c(NS(=O)(=O)c2ccc(C(C)(C)C)cc2)nc(-c2ncccn2)nc1OCCCNS(=O)(=O)c1cccs1 [Example 90, 4-tert.-butyl-N-[6-(3-(2-thiophenesulfonylamino)-propoxy)-5-(o-methoxyphenoxy)-2-pyrimidinyl-4-pyrimidinyl]-benzene-sulfonamide]
22 |  |  | 5680 | 604 | COc1ccccc1Oc1c(NS(=O)(=O)c2ccc(C(C)(C)C)cc2)nc(SC)nc1OCCNS(=O)(=O)c1ccc(C)cc1 [Example 37, 4-tert.-butyl-N-[6-(2-p-toluenesulfonylamino-ethoxy)-5-(o-methoxyphenoxy)-2-methylsulfanyl-pyrimidin-4-yl]-benzenesulfonamide]
